Laboratory results reported in patent US20180291378A1, “METHODS AND COMPOSITIONS FOR PROMOTING HAIR GROWTH” (THE TRUSTEES OF COLUMBIA UNIVERSITY IN THE CITY OF NEW YORK, priority 2015, published 2018).

Experiments:
[1] = tested on: hair germ compartment (P-cad+); assay: Hair germ proliferation (Ki67 / EdU) in treated mouse skin; assay type: in vivo
Method: C57/B6 mice at 8.5 weeks of age were treated on half of the dorsal back with either topical vehicle control (left side) or JAK inhibitors (right side). Four hours post treatment each mouse received a single injection of 20 mg/kg 5-ethynyl-2′-deoxyuridine (EdU) (Invitrogen). One hour after injection, skin was harvested, fixed and stained using the Click-iT EdU Alexa Fluor 488 Imaging Kit (Life Technologies) per manufacturer's instructions, and co-stained for P-cadherin. Experiment was replicated once, with 1 mouse/time point.

human DP spheres = assay: Patch assay with dermal papilla spheres; assay type: in vivo; settings: DP spheres treated at 400 nM
Method: DP cells were grown in spheres as previously described (35). […] Each hanging drop contained 1000 cells, which aggregated to form DP spheroids after 24 hours. 48 hours after plating, 500 spheres in each condition were collected for use in the patch assay. Each experiment was performed with cells derived from a single individual, and four separate experiments were conducted. Keratinocytes were isolated from new born mice following the protocol outlined by Lichti et al (63). Cells were cultured in dkSFM for 2-4 days prior to being harvested for the patch assay. 1×10^6 newborn murine keratinocytes were then mixed together with 500 human DP spheres in each condition, and injected subdermally into dorsal skin of a nude mouse. 12 days after performing the injections, cysts had developed in the dermis, some which contained HF and hair fibers. These cysts were collected, photographed and then digested in 0.35% collagenase. The digested slurries were spread onto microscope slides and hair fiber counts were manually performed under a stereo microscope.

[2] = tested on: whole skin gene expression; assay: Whole skin microarray / IPA pathway analysis after 4 days of treatment; assay type: in vivo, mouse; settings: 8.5-week-old mice
Method: Gene expression profiling was performed on whole skin biopsies from 12 B6/C57 female mice, 8.5 weeks of age. Biopsies were taken from dorsal skin at day 0 (T0) of the experiment. […] Quality control was performed using the affy analysisQC package from http://arrayanalysis.org/. […] Data were normalized using the GCRMA method as implemented in affyAnalysisQC. LIMMA was used with a multilevel model to identify genes that were differentially expressed between samples at T5 and T0 for each treatment group (DMSO, RUXO, and TOFA) using a threshold of fold change=1.5 and P<0.05.
Total RNA was extracted using the Qiagen RNAeasy micro kit. The Ovation RNA Amplification kit (Nugen) was used to generate amplified cDNA for microarray analysis. Arrays used were Affymetrix mouse 430 2.0, hybridized at the CUMC microarray facility. qPCR analysis was performed on the ABI 7300 cycler. Primers sequences available in Table 2.

[3] = tested on: human DP spheres gene expression; assay: DP spheres microarray / GEDI / gene set enrichment analysis; assay type: cell-based
Method: For the DP spheres microarray analysis, cells were prepared from three different donors, and Affymetrix human HG-U133 PLUS 2.0 arrays were hybridized at the CUMC genomics facility. Quality control and data normalization was performed as described above. For the organ culture experiment, 3 sets of repeats were performed, each times using HF derived from a single individual.
For the DP spheres microarray analysis, total RNA was extracted from DP spheres cultured in DMSO, ruxolitinib or tofacitinib from each of the three donors using the Qiagen RNAeasy micro kit. The Ovation RNA Amplification kit (Nugen) was used to generate amplified cDNA for microarray analysis. LIMMA was used with a linear model treating both treatment and the blocking factor, donor, as fixed effects. Contrasts of interest between treatments were used to identify genes that were differentially expressed between pairs of treatments for the treatments DMSO, RUXO, and TOFA. A threshold of absolute fold change=1.5 and P<0.05 was employed. For GSEA, the HG_U133_Plus_2.0 chip annotation file downloaded from ftp.broad.mit.edullpub/gsedannotations/was used to annotate the Affymetrix ProbeSets and to remove duplicate ProbeSets for a given Gene Symbol. Duplicates were removed based on the maximum absolute fold-change observed for each Gene Symbol. Pre-ranked gene lists were generated for each treatment contrast of interest, using the moderated t-statistics returned by LIMMA. GSEA was performed on these lists to identify KEGG pathways overrepresented in each list (ES p-value 0.01).
The gene set enrichment analysis comparing tofacitinib-treated and control cells was performed by generating a list of all detected transcripts ranked by differential expression (p-value), and direction of fold change (up or down). This ranked list was tested for enrichment of the union of territories 2 and 4 (gene list provided in Table 3) as described previously (35). A null distribution for computing the normalized enrichment score (NES) and its associated p-value was obtained by label shuffling to randomize the gene rankings. These randomized sets were then used to compute null enrichment scores over 5000 iterations to generate a null distribution. The observed leading edge enrichment score was normalized to this distribution and a 2-tailed p-value was generated for this NES.

STAT3 and STAT5 = STAT3 and STAT5 activation in whole skin treated in vivo; design: species or system mouse
OSM-Rβ [4] = assay: OSM-Rβ expression in mouse skin treated in vivo during telogen; settings: whole skin biopsies daily over 5 days of treatment
mouse keratinocytes = assay: Colony forming assay with mouse keratinocytes harvested at telogen; assay type: cell-based
[5] = tested on: human adult scalp hair follicles; assay: Human hair follicle organ culture assay; assay type: cell-based
Method: Adult human follicles were microdissected from occipital skin under sterile conditions as previously described.
Media was replaced every 2 days, and images of individual follicles were taken every 2 days. Analysis of the growth rate of each follicle was performed using Image J.

C57/B6 mice in telogen = assay: Anagen induction by topical treatment of shaved wildtype mice in telogen; assay type: in vivo, mouse; settings: for days of treatment until treated follicles re-initiate anagen: 7 week old mice, treated for 24 days; for mice displaying skin darkening and hair growth within 10 days of starting treatment: 8.5 week old mice treated for 5 days
From the text: It was hypothesized that inhibition of JAK-STAT signaling promotes entry into the hair cycle in mice. To determine the onset of anagen, backskin hairs were trimmed with an electric shaver, and entry of HF into anagen was observed by the appearance of darkening skin and by hair regrowth. For the hair cycle experiments described in FIG. 1A, biopsies were taken from 2 mice/time point, and the experiment was replicated on 3 sets of littermates. For the experiments described in supp. FIGS. 1C&D, 3-4 mice were used per group (7 week vs. 8.5 week), and the experiment was replicated 3 times. […] The experiment presented in FIG. 1E was independently replicated once, with 3 mice/condition. The experiments described in FIG. 2A, 3 mice/genotype were utilized, and the experiment was replicated in 2 sets of littermates.
Ruxolitinib (INCB018424) was purchased from ChemieTek (catalog number CT-INCB). […] Hedgehog agonist (SAG) was purchased from EMD Millipore (catalog number 566660). JAK-STAT inhibitors were dissolved in DMSO and used at 2-3% for in vivo experiments, as indicated, and 400 nM for in vitro experiments. SAG was used at 120 uM, as described in Paladini et al (2).

STAT1, STAT3 and STAT5 = assay: OSM-induced STAT activation in cultured keratinocytes; assay type: cell-based, mouse
[6] = tested on: human fetal scalp skin grafts; assay: Human skin grafting assay on SCID mice; assay type: in vivo; settings: daily topical application, 4 weeks
Method: The mice were bandaged, and the grafts were left to recover for 6 weeks. […] Grafts were treated daily with topical application of vehicle control, ruxolitinib or tofacitinib. Treatment continued for 4 weeks, and pictures were taken every 3-5 days. Experiments were performed with skin from 3 separate donors. Quantification of hair growth was performed using ImageJ. Taking advantage of the fact that the donor hair was dark and the grafted mouse was white, the intensity of pigmentation was measured as a proxy for density of HF. Since control and experimental treatments were performed on the same graft, each image allows for the direct comparison between vehicle- and drug-treated skin. Darker regions are given a lower value than bright regions. Ratio was calculated by averaging the intensity values for the control treated side, by the intensity values for drug-treated side, accounting for pre-treatment differences in hair growth on the graft and for changes in hair density occurring over time.

OSM-Rβ [7] = assay: OSM-Rβ expression in cultured mouse keratinocytes; assay type: cell-based; settings: recombinant mouse OSM at 20 ng/ml

C[C@@H]1CCN(C(=O)CC#N)C[C@@H]1N(C)c1ncnc2[nH]ccc12 [tofacitinib]
Edu+ cells within the hair germ (P-cadherin+) compartment ([1]; after three treatments, skin harvested 5 hours after treatment): clearly visible
proliferation within the hair germ compartment (P-cad+) ([1]; mice in telogen treated 4 days): Significant proliferation
inductivity of DP spheres (human DP spheres): did enhance inductivity
size and numbers of HFs induced (human DP spheres; with neonatal mouse keratinocytes in nude mice): larger and significantly greater numbers of HFs
expression of hair cycle regulators Shh and Prom1 ([2]; T5 vs T0): significantly upregulated
pathways enriched by only one of the drug treatments ([2]; T5 vs T0): pathways involved in cell motility and migration, such as Rho and integrin signaling
pathways enriched in both drug treatments (IPA) ([2]; T5 vs T0, not in vehicle): melanogenesis and the Wnt pathway were enriched
expression of LEF1, WIF1 and CD133 [3]: upregulate
expression of TGβ2, BMP6 and LEF1 [3]: upregulated
gene set enrichment of territory T4 ([3]; treated vs untreated spheres): significantly enriched
gene set enrichment of territory T2 ([3]; treated vs untreated spheres, overlap only marginally significant): enriched
expression of FGFR1, ACVRL1, IGFR1, OSMR and PTGFR (region 1) ([3]; vs control): repressed in both treatments but lower in tofacitinib treatment
expression of members of the TGFβ pathway and the BMP pathway (regions 3 and 4) ([3]; vs control): upregulated
expression of pro-apoptotic genes BAX, BCL2L11 and CASP12 (region 2) ([3]; vs control): downregulated
key regulators of the WNT pathway (LEF1) and members of the NOTCH pathway ([3]; vs control): overrepresented
STAT3 and STAT5 activation (STAT3 and STAT5): effective inhibition
OSM-Rβ expression, qRT-PCR (OSM-Rβ [4]): Downregulation
effect on OSM growth inhibition (mouse keratinocytes; added to OSM): reversed partially
number of keratinocyte colonies (mouse keratinocytes; drug alone): increase the number of keratinocyte colonies
length of hair shafts / rate of hair elongation ([5]; 400 nM, follicles from a single donor): significantly increased length of hair shafts
growth rate of anagen, repeat experiment ([5]; follicles from two individuals, did not reach statistical significance): increased the growth rate of anagen
days of treatment until treated follicles re-initiate anagen (C57/B6 mice in telogen): ≤ 21 days
mice displaying skin darkening and hair growth within 10 days of starting treatment (C57/B6 mice in telogen): ~90%
re-entry into the hair cycle (C57/B6 mice in telogen; topical, half of dorsal back, treated three weeks): rapid re-entry into the hair cycle, with kinetics similar to the Shh agonist
effect on OSM-induced STAT1, STAT3 and STAT5 activation (STAT1, STAT3 and STAT5; in vitro cultured keratinocytes): efficiently abrogated
HF growth on graft compared to controls [6]: denser HF growth

N#CC[C@H](C1CCCC1)n1cc(-c2ncnc3[nH]ccc23)cn1 [ruxolitinib]
days of treatment until treated follicles re-initiate anagen (C57/B6 mice in telogen): ≤ 18 days
mice displaying skin darkening and hair growth within 10 days of starting treatment (C57/B6 mice in telogen): ~90%

B1: OSM: oncostatin M, secreted cytokine of the IL-6 family; recombinant mouse OSM used at 20 ng/ml (protein, UniProt P53347 25-206, looked up)
Oncostatin-M: NRGCSNSSSQLLSQLQNQANLTGNTESLLEPYIRLQNLNTPDLRAACTQHSVAFPSEDTLRQLSKPHFLSTVYTTLDRVLYQLDALRQKFLKTPAFPKLDSARHNILGIRNNVFCMARLLNHSLEIPEPTQTDSGASRSTTTPDVFNTKIGSCGFLWGYHRFMGSVGRVFREWDDGSTRSRR
expression of OSM-Rβ (OSM-Rβ [7]): upregulated
effect on keratinocyte colony growth (mouse keratinocytes; OSM alone): growth inhibitory effect
activation of STAT1, STAT3 and STAT5 transcription factors (STAT1, STAT3 and STAT5; within 10 minutes of OSM treatment): activated
